From patent US20140205662A1, “SYSTEM AND METHOD FOR […] TIMED LOCAL […] OF A COMBINATION PHARMACEUTICAL PREPARATION FOR ORAL THERAPY” (The Research Foundation for The State University of New York, priority 2010, published 2014) come the findings set out here.

The data set concerns gingival fibroblasts. The protocol:
To determine whether the co-administration of these two compounds was cytotoxic, the following experiments were carried out.

With `CC(C(=O)O)c1ccc(-c2ccccc2)c(F)c1` (stereo not shown) [flurbiprofen], the “cytotoxicity (in words)” value is listed as “relatively low cytotoxicity” and the relative cytotoxicity lay within 0 to 0.031 mg/mL.
With `C[C@H]1c2cccc(O)c2C(=O)C2=C(O)[C@]3(O)C(=O)C(C(N)=O)=C(O)[C@@H](N(C)C)[C@@H]3[C@@H](O)[C@@H]21` [doxycycline], the “cytotoxicity (in words)” value is “relatively increasing cytotoxicity with increasing concentration” and the relative cytotoxicity was 0 to 0.231 mg/mL.
